The values that follow come from patent US12072338B2, “Pharmaceutical peptides for the treatment of inflammatory diseases” (PROTAGONISTS LTD., priority 2007, dated 2024).

Assay [1] has as its target T1, IP-10 (Homo sapiens, UniProt P02778).
T1 construct: purchased 300-12
T1 sequence (P02778 22-98): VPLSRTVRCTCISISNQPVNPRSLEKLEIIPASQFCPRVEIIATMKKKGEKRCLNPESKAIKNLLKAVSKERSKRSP
The experiment in a line: Micro-array analysis of chemokine binding peptides: IP-10. A digest of the protocol: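 Chemokines were printed at 25 and 50 μg/ml (final, in print reagent) on protein microarray slides, blocked, then exposed to recombinant peptide-displaying phage at 10^7 pfu/μl for 1 h at RT. Bound phage was detected with mouse anti-M13 mAb and Cy3 goat anti-mouse IgG; values are relative Cy3 fluorescence.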

For assay [2], the target named is T2, MIP3-α (Homo sapiens, UniProt P78556).
T2 construct: purchased 300-29A
T2 sequence (P78556 27-96): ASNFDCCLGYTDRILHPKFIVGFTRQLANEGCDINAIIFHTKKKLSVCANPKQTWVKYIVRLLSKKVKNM
The experiment in a line: Micro-array analysis of chemokine binding peptides: MIP3-α. On the procedure: (1) Printing: Chemokine (CK) solution (in water) was serially diluted with Print Reagent (GenTel BioSurfaces USA) to final concentrations of 50 μg and 25 μg/ml. BSA/BSA-Biotin control solutions (in water) were diluted with Print Reagent to 100 μg/ml. Amplified stock of M13 phage control (M13KEgIII Cloning Vector, New England Biolabs, Cat.No.E8101S) was stored in Tris Buffered Saline (TBS; pH7.5, 4° C.) and diluted with Print Reagent to the working titre (10^8 pfu/μl). An automated spotting robot (16 pin print tool, 0.4 mm head; BioRobotics, UK) was used to print the CK/BSA control/M13 control, 5 repeats per sample (CK 25 μg/ml and 50 μg/ml; BSA 100 μg/ml; M13 20 μl), on PATH Protein Microarray Slides (GenTel, Prod.No. 2-1005/-1025) at […], and 50-70% relative humidity. Printed micro-array slides were stored at Room Temperature (RT) or 4° C. for at least 24 h before use. […]
(11) Analysis: Quantitative analysis of micro-array was performed by the SpotReader program of Niles Scientific (USA) and presented as Relative Fluorescence (RF) as a function of CK concentration. Micro-array readout (Cy3 fluorescence) was quantified to determine the relative binding affinities of a CBP for the CKs and by inference, the specificity of the CBP for binding to a CK.

Assay [3] deals with Adjuvant-Induced Arthritis (AIA) rats. The experiment in a line: Adjuvant Induced Arthritis (AIA) rat model, Clinical Score. Type of assay: in vivo. The following applies: for most efficacious of the three doses: 2.5 μg, 25 μg and 250 μg IP on days 7-18; for day of maximal anti-inflammatory effect / maximal anti-inflammatory effect: 25 μg IP on days 7-18. The method, then:
Peptides were tested in a rat model of AIA for their anti-inflammatory effects.
Disease Induction: AIA was induced in female Lewis rats aged 7-8 weeks by injection of heat-killed Mycobacerioum tuberculosis (Mt strain H37Ra, Difco Laboratories, USA) dispersed in incomplete Freund's adjuvant to a final concentration of 10 mg/ml (100 μl) at the base of the tail on day 0.
Measurement: Clinical Score (CS, 0-4) for each limb based on (a) joint inflammation, (b) redness, (c) deformity.
Efficacy Protocol 1 (5 rats per group). Peptide/control compound was injected intra-peritoneally (IP, 200 μl) on days 7-11 and 14-18.
Rats were sacrificed (CO2 inhalation) on day 43.
Efficacy Protocol 2 (8 rats per group). Group 1: peptide/PBS was injected intra-peritoneally (IP, 200 μl) on days 7-18; Group 2: PBS was injected IP on days 7-18; Group 3: Dexamethasone (Dexa) was injected IP on days 11 (Clinical Score (CS)1) and 13. Rats were sacrificed on day 43.
Combination Efficacy Protocol 1 (8 rats per group). Group 1: peptide injected IP on days 7-18; Group 2: PBS injected IP on days 7-18; Group 3: Dexa injected IP on day 11 (CS 1) and day 13; Group 4: Dexa injected IP on days 11 and 13 then peptide injected on days 14-22; Group 5: Dexa injected IP on days 11 and 13 then PBS injected on days 14-22.
Combination Efficacy Protocol 2 (8 rats per group). Group 1: peptide injected IP on days 7-18; Group 2: PBS injected IP on days 7-18; Group 3: Dexa injected IP on day 11 (CS 1) and day 13 then PBS on days 14-22; Group 4: PBS injected IP on days 7-10,12,14; Dexa injected on days 11, 13. Peptide injected on days 15-19.
Combination Efficacy Protocol 3 (8 rats per group). Group 1: peptide injected IP on days 7-18; Group 2: PBS injected IP on days 7-18; Group 3: Dexa injected IP on day 11 (CS 1) and day 13 then PBS on days 14-22; Group 4: peptide injected IP on days 7-10,12,14; Dexa injected on days 11, 13. Peptide injected on days 15-19.
Control Reagents for Adjuvant Induced Arthritis: Anti-Inflammatory Control: Dexamethasone Sodium Phosphate (Dexacort Forte, Teva) was dissolved in Phosphate Buffer Saline (PBS, GIBCO) to a final concentration of 1 mg/ml and injected in 200 μl (200 μg).
Negative Control: Phosphate Buffer Saline (PBS).

Like-named read-outs stand apart in the source and are kept apart here.

With WVFGAAMCK [Ph-p8.8], the “binding to IP-10, stated in words” value in assay [1] was “bound”. Moreover, the “binding to IP-10, stated in words” value in assay [1] (listed as P8.8) was “bound specifically and differentially”. Also, the “binding to MIP3-α, stated in words” value in assay [2] is “bound”. Moreover, in assay [3], the “most efficacious of the three doses” value was 25 µg, the “day of maximal anti-inflammatory effect” value is 18 days and the maximal anti-inflammatory effect is reported as 20%.

On to WVFGNAMCK [P8], for which, in assay [3], the “most efficacious of the three doses” value was found to be 25 µg, the “day of maximal anti-inflammatory effect” value is ~17 days and the maximal anti-inflammatory effect was 17%.
